This is an account of results in US9062067B2, “Process for preparation of darunavir and darunavir ethanolate of fine particle size” (Lupin Limited, priority 2009, dated 2015).

One data set is described as follows: Bulk and tapped density. Type of data set: physicochemical. The conditions noted are these: after jet mill micronization, Example 4.
Data set [1] can be described thus: Particle size distribution (Malvern mastersizer). The data set is classed as physicochemical. The conditions noted are these: after jet mill micronization, Example 4. The text has this:
The particle size of the darunavir ethanolate obtained by the process of present invention can be determined by any method known in the art such as laser diffraction, sieve analysis, microscope observation, sedimentation etc. Malvern mastersizer is an instrument employed for particle size determination in the present invention.

With `CC(C)CN(C[C@@H](O)[C@H](Cc1ccccc1)NC(=O)O[C@H]1CO[C@H]2OCC[C@H]21)S(=O)(=O)c1ccc(N)cc1` [darunavir ethanolate, Darunavir ethanolate], in the data set “Bulk and tapped density”, the Bulk density was 0.42 g/mL and the Tapped density stood at 0.72 g/mL. Also, in data set [1], the “Particle size distribution d0.1” value is 2 μm, the “Particle size distribution d0.5” value stood at 18 μm and the “Particle size distribution d0.9” value is 97 μm.
